“And” between values parts separate entries of the source, which are not always exact repeats. Equal entries are not always repeated. The source made the active and inactive calls.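 The calls were made as follows: active = compounds giving half or more protection of infected cells from virus-caused growth loss, again on retest; inactive = the rest.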

The test system of the experiment is CEM cells HIV-1 protection, formazan growth assay. Description: NCI AIDS Antiviral Assay. To be noted: for IC50: measured here: growth of uninfected CEM cells. In short, it runs like this:
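Protection of CEM cells against HIV-1 measured as cell growth via soluble formazan read-out, with five concentrations tested on both infected and uninfected cells; failure to protect may reflect toxicity.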

Take `CC(=O)c1c2c(cc3c1CC1(C3)Cc3cc4c(c(C(=O)O)c3C1)CCCC4)CCCC2` (centres undefined) (tested in a mixture with another compound): the EC50 was > 200 µM and the IC50 is 38.9 µM.
Taken in the same sequence, the figures for `C=CC(C)(C)n1cc(C2=C(O)C(=O)C(c3cn(C(C)(C)C=C)c4ccccc34)=C(O)C2=O)c2ccccc21` were > 22.4 µM and 12.3 µM.
For the compound `COc1ccc(C=C2C(=O)OC(C)(C)OC2=O)cc1OC`, the EC50 is > 170 µM and the IC50 is > 170 µM.
For `COC(=O)[C@](NC(=O)OCc1ccccc1)([C@@H](C)S(=O)c1ccc(C)cc1)C(F)(F)F` (some centres undefined), the EC50 was > 200 µM and the IC50 was 29.5 µM.
With `C[C@]12CCC[C@H](Cl)C1(O)C[C@H](C(=O)O)CC2` (some centres undefined), the outcome was inactive.
With `CC(=O)c1ccc(NC(=O)C(=O)CC(=O)c2sc(-n3nc(-c4ccccc4)cc3-c3ccccc3)nc2C)cc1`, the EC50 was > 155 µM and the IC50 was > 155 µM.
Consider `O=S1(=O)Cc2ccccc21`, for which the EC50 is > 1170 µM and the IC50 came to 589 µM.
For `COc1ccc(C(=O)c2ccccc2O)c(O)c1`, in that order: > 200 µM and > 100 µM.
For `OC1C2CCC3C2CC(C(O)(c2ccccc2)c2ccccc2)C13` (centres undefined), in that order: > 200 µM and 79.4 µM.
As to `O=C(CCC(=O)Nc1ccc(Cl)c(Cl)c1)CC(=O)c1ccc(Br)cc1`, the EC50 is > 282 µM and the IC50 was > 282 µM.
For the compound `CC1=C(C#N)C2(C(=O)N(C)c3ccccc32)C(C#N)=C(C)N1`, the EC50 was > 324 µM and the IC50 came out at 27.5 µM.
For `C[Si](C)(C)/N=C1\N2C(=NC1(C(F)(F)F)C(F)(F)F)Sc1ccccc12`, the result was inactive.
As for `Brc1ccc(C2CC3(c4ccccc4)ON=C(c4ccccc4)N3c3ccccc3S2)cc1` (centres undefined), the EC50 is > 200 µM and the IC50 was found to be 174 µM.
Taken in the same sequence, the figures for `Cc1cc(Cc2cc(C)c(O)c(Br)c2)cc(Br)c1O` were > 200 µM and 1.58 µM.
With `COc1ccc(-c2nnc(-c3ccncc3)o2)cc1`, the EC50 was > 200 µM and the IC50 is > 200 µM.
`CNC(=O)CN(C)C(=O)CCC(=O)N(C)C`: the EC50 is > 200 µM and the IC50 was > 200 µM.
Consider `CON[C@@H]1C[C@H](n2cc(C)c(=O)[nH]c2=O)O[C@@H]1CO[Si](C)(C)C(C)(C)C`, for which the EC50 was > 200 µM and the IC50 is 107 µM.
Taken in the same sequence, the figures for `N=C(N)c1ccc(N=Nc2ccc(N)cc2N)cc1` were > 200 µM and 51.3 µM.
As to `COC(=O)C12CN(C)CC(C(=O)OC)(C1=O)C(c1ccccc1)OC2c1ccccc1` (centres undefined), the outcome was inactive.
On to `CCOC(=O)c1c(OC)cc2n(c1=O)Cc1cc3ccccc3nc1-2`, for which the EC50 was > 10 µM and the IC50 is > 10 µM.
For the compound `COc1ccc(/C=C/C(=O)Oc2cc(O)cc(O)c2)cc1`, the EC50 is > 200 µM and the IC50 was determined as 4.57 µM.
Taken in the same sequence, the figures for `CC(=O)OCC1OC(SC2OC(COC(C)=O)C(OC(C)=O)C(OC(C)=O)C2OC(C)=O)C(OC(C)=O)C(OC(C)=O)C1OC(C)=O` (centres undefined) were 97.7 µM and > 200 µM.
Regarding `S=C(N/N=C/c1ccccc1)NC1CC(c2ccccc2)Oc2ccccc21` (centres undefined), the outcome was inactive.
As to `O=C1/C(=C2\Sc3c(ccc(Cl)c3Cl)C2=O)Sc2c1ccc(Cl)c2Cl`, the EC50 is > 200 µM and the IC50 is > 200 µM.
For the compound `CCOC(=O)c1cc(NC(=O)N(CCC#N)CCN(C(=O)N[C@@H](Cc2ccccc2)C(=O)N[C@@H](CC(C)C)C(=O)NC)c2ccccc2)ccc1OC`, the EC50 was > 200 µM and the IC50 was 29.5 µM.
On to `CNc1nc(N(C)C)nc(N(C)C)n1`, for which the EC50 was > 537 µM and the IC50 was determined as 407 µM.
For `CC(O)(P(=O)(O)O)P(=O)(O)OCC(O)CN1CCOCC1` (centres undefined), in that order: > 100 µM and > 100 µM.
Take `COc1ccc2c(c1)CC[C@@H]1[C@@H]2CC[C@]2(C)[C@H](O)[C@H](O)C[C@@H]12`: the EC50 is > 200 µM and the IC50 was determined as 32.4 µM.
Taken in the same sequence, the figures for `COc1ccc(-c2c3c(n(C4OC(COC(C)=O)C(OC(C)=O)C(OC(C)=O)C4OC(C)=O)c(=S)c2C#N)CCC3)cc1` (centres undefined) were > 200 µM and 112 µM.
Take `COc1cc(N(C)C)c(OC)cc1/C=C1\C=Cc2ccccc21`: the EC50 is > 17 µM and the IC50 is > 17 µM.
Turning to `CN(N)c1cn[nH]c(=O)c1Cl`, the EC50 is > 200 µM and the IC50 was > 200 µM.
With `C=CCN1CC2CN=NC2(C#N)C1` (centres undefined), the EC50 was > 200 µM and the IC50 was > 200 µM.
On to `CCOC(=O)CCC(NC(=O)c1ccc(Nc2nc3ccccc3nc2C(=O)OCC)cc1)C(=O)OCC` (centres undefined), for which the EC50 was > 138 µM and the IC50 is 85.1 µM.
Taken in the same sequence, the figures for `COc1cc(OC)cc(-c2cc(=O)c3c(OC)c(OC)c(OC)c(OC)c3o2)c1` were > 200 µM and 26.9 µM.
For `NC(C(=O)O)C1=CCCC1` (centres undefined), in that order: > 200 µM and > 200 µM.
Taken in the same sequence, the figures for `COC(=O)c1ccc(N=NN(C)COc2ccc(C#N)cc2)cc1` were > 200 µM and 81.3 µM.
Consider `O=C1C(=O)N(c2ccc(Cl)c(Cl)c2)C(=O)C(=O)C1c1nc2ccccc2o1`, for which the result was inactive.
With `Cc1c(C)c2ccc3c(c2oc1=O)[C@@H](OC(=O)C12CCC(C)(C(=O)O1)C2(C)C)[C@@H](OC(=O)C12CCC(C)(C(=O)O1)C2(C)C)C(C)(C)O3` (some centres undefined), the EC50 was 0.245 µM and the IC50 was found to be 123 µM.
Taken in the same sequence, the figures for `O=C(NCCCCNCCCNC(=O)c1ccc([N+](=O)[O-])cc1)c1ccc([N+](=O)[O-])cc1` were > 200 µM and 112 µM.
For `CCOC(=O)C(COS(C)(=O)=O)(COS(C)(=O)=O)C(=O)OCC`, in that order: > 251 µM and 209 µM.
For `COc1ccccc1NC(=O)CC(=O)NNCC(=O)Nc1nnc(-c2ccccc2)o1`, in that order: > 85.1 µM and > 85.1 µM.
As for `O=C(O)c1ccc(Nc2cnc3ccc(C(F)(F)F)cc3n2)cc1`, the EC50 is > 200 µM and the IC50 was 11.2 µM.
Regarding `CCOC(=O)NC(=O)c1cn(CCCCCOC(=O)NCCCCCCNC(=O)OCCCCCn2cc(C(=O)NC(=O)OCC)c(=O)[nH]c2=O)c(=O)[nH]c1=O`, the result was inactive.
Still for that read-out and setting: the same measure for `COc1ccc2nc3cc(Cl)ccc3c(NCCCN(Cc3cc(OC)c(OC)c(OC)c3)Cc3cc(OC)c(OC)c(OC)c3)c2c1`: “inactive”.
`Cc1cn(COCCCOCC(=O)c2ccccc2)c(=O)[nH]c1=O`: the EC50 is 93.3 µM and the IC50 is > 200 µM.
Taken in the same sequence, the figures for `CCCN=C(NC(=O)c1ccc(Cl)cc1)SC` were > 200 µM and > 200 µM.
For `CN/C=C(/c1ccc(OC)cc1)C(O)c1ccc(OC)c(OC)c1` (centres undefined), in that order: > 759 µM and 282 µM.
For `Cc1nc(C(N)=S)sc1C(=O)C/C(=N/N)C(=O)Nc1ccc(Cl)cc1`, in that order: > 240 µM and > 240 µM.
With `Oc1ccc2ccc3c(c2c1)CN(Cc1ccccc1)CO3`, the EC50 is > 24.5 µM and the half-maximal inhibitory concentration (IC50) was > 24.5 µM.
Consider `NC(=O)C1Cc2cc3c(cc21)OCO3` (centres undefined), for which the EC50 is > 200 µM and the 50% inhibitory concentration (IC50) is > 200 µM.
Take `CC(=O)N1C(=O)C2(NCCCN2)c2ccccc21`: the EC50 was > 40.7 µM and the IC50 was > 40.7 µM.
As for `NNCCc1n[nH]c(=O)n1N`, the EC50 was > 200 µM and the IC50 is > 200 µM.
Turning to `CC1CC[N+]2(C)CCCC12` (centres undefined), the EC50 is > 1120 µM and the IC50 was > 1120 µM.
As to `COc1ccc(OC)c(NC(=O)CCC/C(CC(=O)c2ccc(O)c(OC)c2)=N\NC(=O)C[N+](C)(C)C)c1`, the EC50 was > 6.61 µM and the IC50 is > 6.61 µM.
In the case of `CC1C2=C(CN3C[C@H](C)CCC13)C1CC3C(C[C@@H](O)C4C[C@@H](O)CC[C@]34C)C1CC2` (some centres undefined), the EC50 is > 22.9 µM and the IC50 was > 22.9 µM.
As to `COC(=O)c1nn2ccc3ccccc3c2c1C(=O)OC`, the EC50 is > 200 µM and the IC50 turned out to be 93.3 µM.
Taken in the same sequence, the figures for `CCCN1CN(C(C(=O)N[C@@H]2C(=O)N3C2SC(C)(C)C3C(=O)O)c2ccc(O)cc2)CSC1=S` (some centres undefined) were > 479 µM and 145 µM.
Taken in the same sequence, the figures for `O=C(O)c1ccccc1/C=N/NC1=NCCN1` were > 200 µM and 85.1 µM.
Consider `CCC1C(=O)N(C)c2ccccc21` (centres undefined), for which the EC50 was > 200 µM; the IC50 is 117 µM and 33.1 µM.
With `CCCOc1csc([C@H]2CCC3[C@@H]4CC=C5C[C@@H](O)CC[C@]5(C)C4CC[C@@]32C)n1` (some centres undefined), the EC50 is > 12 µM and the IC50 is > 12 µM.
Take `N/N=C(/Cc1ccccc1)NNC(N)=S`: the EC50 is > 427 µM and the IC50 came out at 263 µM.
Taken in the same sequence, the figures for `CC(=O)OC1CCC2C3CCc4c(C)ccc(OS(=O)(=O)c5ccccc5)c4C3CCC12C` (centres undefined) were > 200 µM and > 200 µM.
Take `CCC(C)C1C(=O)ON=C1N` (centres undefined): the EC50 is > 200 µM and the IC50 was > 200 µM.
Regarding `CNC(=O)N(CCCC(NC(C)=O)C(=O)NCc1ccccc1)Cc1ccccc1` (centres undefined), the EC50 is > 603 µM and the IC50 was > 603 µM.
For `O=Nc1c(O)cc(Nc2ccc(Br)cc2)c2ccccc12`, the EC50 is > 200 µM and the IC50 turned out to be 39.8 µM.
Taken in the same sequence, the figures for `COc1ccc(C(CC(=O)c2ccc3c(c2)OCO3)c2c(O)c3ccccc3oc2=O)cc1OC` (centres undefined) were > 200 µM and 75.9 µM.
For the compound `CCOC(=O)C1=C(O)c2ccc(OC)cc2C(=O)C1=O`, the EC50 is > 339 µM and the IC50 amounted to 204 µM.
Consider `CN(C)CC1CCC/C(=C\c2ccc(Cl)c(Cl)c2)C1=O` (centres undefined), for which the outcome was inactive.
Turning to `CC1=CC(O)(c2ccccc2)C(N2CCOCC2)N1O` (centres undefined), the EC50 was > 200 µM and the IC50 was > 200 µM.
Consider `CCCCCCNC(=O)CNC(=O)c1ccccc1SC(=O)CCCC[n+]1ccccc1`, for which the EC50 is > 200 µM and the IC50 came out at 34.7 µM.
With `N#Cc1c(N2CCCC2)[nH]c(=O)n(Cc2ccccc2)c1=S`, the EC50 is > 200 µM and the IC50 came out at 115 µM.

The values above are taken from PubChem BioAssay AID179 (DTP/NCI, 2004).
